Values quoted from earlier work as cited in US8691803B2, “Process for the preparation of antibiotic compounds” (Savior Lifetec Corporation, priority 2011, dated 2014).

Details: storage; must be stored at a low temperature

Temperature stability: unstable above −20 °C
SMILES: C[C@@H](O)[C@H]1C(=O)N2C(C(=O)O)=C(S[C@@H]3CN[C@H](C(=O)Nc4cccc(C(=O)O)c4)C3)[C@H](C)[C@H]12 [ertapenem]
